Reference: article PMC4971745, “Evaluation of a Set of C9 N-acyl Neu5Ac2en Mimetics as Viral Sialidase Selective Inhibitors” (International Journal of Medicinal Chemistry, 2010)

Assays:
human sialidase NEU4 = conditions: previously reported; ref [39]; read-out: Human sialidase inhibition (IC50) NEU4; cited from earlier work
human sialidase NEU1 = conditions: previously reported; ref [39]; read-out: Human sialidase inhibition (IC50) NEU1; cited from earlier work
human sialidase NEU2 = conditions: previously reported; ref [39]; read-out: Human sialidase inhibition (IC50) NEU2; cited from earlier work
[1] = target: T1, sialidase of influenza A virus A/PR/8/34 (H1N1) (Influenza A virus, UniProt P03468); experiment: biochemical
T1 construct: preincubated with 5 μL of the virus containing 2 enzyme units; host or cells: whole virus preparation
T1 sequence (P03468 whole entry): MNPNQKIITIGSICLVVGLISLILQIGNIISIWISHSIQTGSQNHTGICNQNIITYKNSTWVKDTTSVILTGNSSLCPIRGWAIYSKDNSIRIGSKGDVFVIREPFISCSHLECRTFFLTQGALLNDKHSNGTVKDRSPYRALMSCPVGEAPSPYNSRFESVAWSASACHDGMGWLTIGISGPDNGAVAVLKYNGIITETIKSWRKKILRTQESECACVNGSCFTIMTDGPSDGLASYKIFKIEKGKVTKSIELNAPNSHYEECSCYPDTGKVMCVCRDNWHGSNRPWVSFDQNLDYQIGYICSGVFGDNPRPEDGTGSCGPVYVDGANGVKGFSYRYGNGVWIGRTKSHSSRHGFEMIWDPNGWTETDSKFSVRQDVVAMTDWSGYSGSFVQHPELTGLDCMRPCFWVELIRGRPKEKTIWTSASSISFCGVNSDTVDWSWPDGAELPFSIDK

human sialidase NEU3 = conditions: previously reported; ref [39]; read-out: Human sialidase inhibition (IC50) NEU3; cited from earlier work
[2] = system: sialidase of influenza A virus A/Duck/313/78 (H5N3); format: biochemical; conditions: pH 6; read-out: Viral sialidase inhibition (IC50) H5N3
[3] = target: T2, sialidase of influenza A virus A/Memphis/1/71 (H3N2) (Influenza A virus, UniProt P03475); experiment: biochemical
T2 construct: preincubated with 5 μL of the virus containing 2 enzyme units; host or cells: whole virus preparation
T2 sequence (P03475 whole entry): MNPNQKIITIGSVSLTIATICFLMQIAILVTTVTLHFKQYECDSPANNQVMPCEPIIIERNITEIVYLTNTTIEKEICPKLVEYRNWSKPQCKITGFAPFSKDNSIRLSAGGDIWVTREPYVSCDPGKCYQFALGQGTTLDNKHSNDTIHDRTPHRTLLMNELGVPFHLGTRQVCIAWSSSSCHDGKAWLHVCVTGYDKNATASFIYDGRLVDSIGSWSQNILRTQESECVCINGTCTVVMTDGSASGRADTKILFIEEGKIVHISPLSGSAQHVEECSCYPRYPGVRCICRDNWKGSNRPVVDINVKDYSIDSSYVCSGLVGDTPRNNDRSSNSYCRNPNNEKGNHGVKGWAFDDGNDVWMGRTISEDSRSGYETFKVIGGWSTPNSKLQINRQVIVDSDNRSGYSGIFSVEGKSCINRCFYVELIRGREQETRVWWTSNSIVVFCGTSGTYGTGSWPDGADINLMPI

SMILES: CC(=O)NC[C@@H](O)[C@@H](O)[C@H]1OC(C(=O)O)=C[C@@H](O)[C@@H]1NC(C)=O [Compound 5]
- IC50 (human sialidase NEU4): 580 µM
- IC50 (human sialidase NEU1): 58 µM
- IC50 (human sialidase NEU2): > 1000 µM
- IC50 [1]: 22 µM
- IC50 (human sialidase NEU3): > 1000 µM
- IC50 [2]: 97 µM
- IC50 [3]: 34 µM

SMILES: CC(=O)N[C@@H]1[C@@H]([C@H](O)[C@H](O)CNC(=O)c2ccccc2)OC(C(=O)O)=C[C@H]1O [Compound 6]
- IC50 [1]: > 1000 µM
- IC50 [2]: > 1000 µM
- IC50 [3]: > 1000 µM

SMILES: CC(=O)N[C@@H]1[C@@H]([C@H](O)[C@H](O)CNC(=O)C2CCCC2)OC(C(=O)O)=C[C@H]1O [Compound 7]
- IC50 [1]: 850 µM
- IC50 [2]: > 1000 µM
- IC50 [3]: > 1000 µM

SMILES: CC(=O)N[C@@H]1[C@@H]([C@H](O)[C@H](O)CNC(=O)C2CC2)OC(C(=O)O)=C[C@H]1O [Compound 8]
- IC50 (human sialidase NEU4): 825 µM
- IC50 (human sialidase NEU1): 680 µM
- IC50 (human sialidase NEU2): > 1000 µM
- IC50 [1]: 9 µM
- IC50 (human sialidase NEU3): > 1000 µM
- IC50 [2]: 98 µM
- IC50 [3]: 16 µM

SMILES: CCCC(=O)NC[C@@H](O)[C@@H](O)[C@H]1OC(C(=O)O)=C[C@@H](O)[C@@H]1NC(C)=O [Compound 9]
- IC50 [1]: 97 µM
- IC50 [3]: 559 µM

SMILES: CCC(C)C(=O)NC[C@@H](O)[C@@H](O)[C@@H]1OC(C(=O)O)=C[C@H](O)[C@H]1NC(C)=O (some centres unmarked) [Compound 10]
- IC50 [1]: 59 µM
- IC50 [2]: > 1000 µM
- IC50 [3]: > 1000 µM

SMILES: CC(=O)N[C@@H]1[C@@H]([C@H](O)[C@H](O)CNC(=O)C(C)C)OC(C(=O)O)=C[C@H]1O [Compound 11]
- IC50 [1]: 54 µM
- IC50 [2]: > 1000 µM
- IC50 [3]: 680 µM

SMILES: CCCCC(=O)NC[C@@H](O)[C@@H](O)[C@H]1OC(C(=O)O)=C[C@@H](O)[C@@H]1NC(C)=O [Compound 12]
- IC50 [1]: 34 µM
- IC50 [2]: > 1000 µM
- IC50 [3]: 159 µM

SMILES: CC(=O)N[C@@H]1[C@@H]([C@H](O)[C@H](O)CNC(=O)C(C)(C)C)OC(C(=O)O)=C[C@H]1O [Compound 13]
- IC50 [1]: 78 µM
- IC50 [2]: > 1000 µM
- IC50 [3]: 770 µM

SMILES: CCC(CC)C(=O)NC[C@@H](O)[C@@H](O)[C@@H]1OC(C(=O)O)=C[C@H](O)[C@H]1NC(C)=O [Compound 14]
- IC50 [1]: 698 µM
- IC50 [2]: > 1000 µM
- IC50 [3]: > 1000 µM

SMILES: CC(=O)N[C@H]1[C@H]([C@H](O)[C@H](O)CO)OC(C(=O)O)=C[C@@H]1O [DANA, 5-acetamido-2,6-anhydro-3,5-dideoxy-D-glycero-D-galacto-non-2-enonic acid, reference compound]
- IC50 (human sialidase NEU4): 74 µM
- IC50 (human sialidase NEU3): 61 µM
- IC50 [2]: 11 µM
- IC50 [3]: 9 µM
